Reference: patent US10598667B2, “Functional illumination in living cells” (The Regents of the University of California, priority 2013, dated 2020)
Entries after “also recorded” stand apart in the source; their conditions may differ. Where no end group is shown, it is not given here. [ ]: non-standard residue; d: D form. pS = N[C@@H](COP(=O)(O)O)C(=O)O

How the values were obtained:
[1] = Histone H2 tail OBOC library screening with DMHBI; format: binding; conditions: library peptide fused to N-terminal H2
Method: An OBOC combinatorial library was prepared for the development of GESIs for probing histone H2 tail. The library design is shown in FIG. 20C, wherein X represents all 20 eukaryotic amino acids except for cysteine; all possible post-translational modification states of Ser-1 and Lys-5 are incorporated; and additional Xs at the N-terminus of the histone tail will provide necessary capturing residues for fluorescent dyes.

[2] = Real time association and dissociation of dye to bead (color intensity); format: binding
Method: (§1) Dye solutions were prepared in PBS to a 100 μM final concentration and 5 mL of each dye solution were added into the 60 mm dish with beads. Three dyes were tested sequentially. The dish was kept swirling at 60 rpm on the rotator. The dye binding was monitored for 90 minutes, and then the dye solution was removed from the dishes and PBS was added to rinse the beads on the bottom to remove the color dye. The PBS solution was changed every 30 min and the dish was always swirled as above. The beads color change was also observed and recorded at certain time interval during the whole wash process to collect data of color dissociation. Before adding the next dye solution, beads were washed with 70% ethanol to completely remove residual dye and were rinsed with PBS solution three times afterwards.
(§2) A representative positive bead for each color was selected for the color binding and dissociation study. A series of images were taken at different time points during the binding and washing process. From the images taken, regions of interest (ROI) with the same size were picked up from the color beads and colorless control beads. The value from the control bead was subtracted from the color bead to get quantitated color value for each single color bead. The measure of the color intensity for each color dye was performed using the Kodak Image Station 2000MM.
(§3) With the PDMS affixed bead method, it is possible to dynamically observe the peptide-dye interaction on each individual immobilized bead in real time. To further characterize the binding profile for each of the target/sequence interactions, beads #1, #4 and #10 were selected for binding and dissociation study with each respective target dye, by measuring the intensity of the resulting color accumulation on the bead surface at different time points. The values obtained for color intensity across progressing time points were plotted and the profiles for the three dye/bead interactions were compared. The association and dissociation rate of each organic dye to its respective binding peptide was evaluated. […]

[3] = Sequential screening of PDMS affixed OBOC bead array with three dyes; format: binding; conditions: 100 μM dye in PBS, three dyes incubated sequentially on the same bead array
Method: Silicon Elastomer Base was mixed completely with Silicone Elastomer Curing Agent at ratio 10:1 in volume and the solution was kept in vacuum container for 15 to 20 minutes to eliminate the gas bubbles formed during the mixing process. After the removal of all residual bubbles, approximately 0.5-1 mL of PDMS solution was added into the bottom of a 60 mm culture dish. The dish was then spun on a single wafer spin processor (Laurell Technologies Corporation®, model WS-6505-6NPP/Lite) to evenly distribute the solution over the plates, at a speed of 4000 rpm for 30 s. A 5 μm layer of PDMS was formed on the bottom of dish and was cured at 80° C. for 5 min or at room temperature for 24 hrs to allow for beads immobilization. Knowing that the PDMS coating was about 5 μm thick and the radius of bead was around 45 μm, the percentage of free bead surface area was estimated by the formula of [1-2πrh/4πr^2]×100% (h=thickness of PDMS layer; r=radius of bead) to be approximately 95%. The library beads resuspended in 70% ethanol solution were first randomly placed on the surface of a glass plate that was 10% smaller than the dish used in the experiment. After the ethanol evaporated, a syringe needle was used to adjust the dry beads to evenly redistribute beads on the glass surface. Then the dish was inverted and the PDMS layer was pressed down onto the glass plate with beads. The library beads were embedded partly inside the PDMS layer.
as §1, §2
The PDMS affixed bead array was incubated with three different dyes sequentially. […] Eleven beads were selected for further analysis based on their characteristic binding profiles (FIG. 2). […] The amino acid sequences of the peptides bound to the beads were determined (Table 1).

[4] = Real time association and dissociation of dye to bead (color intensity); format: binding; remark: listed apart in the source
Method: as §1, §2, §3

[5] = Fluorescent activation of MG by peptide compared with LTA2 and LTA10; format: binding; conditions: preliminary data
From the text: We expect to generate a toolbox of functional illuminant peptides that can be used in a broad range of biological applications. Translating the peptides identified in aim 1 to highly sensitive and specific functional illuminants in living cells, however, is more challenging. In this proposal, we will characterize the utility of these peptides in live cells with an emphasis on phosphorylation (Aim 2) and histone epigenetics (Aim 3). As indicated above, we plan to design and synthesize a series of dyes candidates for GESI development. We are cognizant that many organic dyes bind non-specifically to many proteins, but usually at rather high concentration (mM). […] It is also important to realize that not all binding events will activate fluorescence. […] This works in our favor as not all non-specific binding (if there is any) will lead to activation of the dyes. One concern that the previous reviewers have was the large number of Trp in our initial leads (e.g. LTA2 and LTA10). As shown in the preliminary data, many strong activators for MG have low number of Trp. For example, fluorescent activation of MG by LRRAS(P)LFYGMWYPST (SEQ ID NO:227), with only 1 Trp, is 4-5× brighter than that of LTA2 and LTA10.

[6] = MG binding of peptide ligands from screening and their derivatives; design: key to MG binding: −: no binding; +: weak binding; ++: mild binding; +++: strong binding; ++++: very strong binding; conditions: 11 hour incubation with 5 μM MG in PBS buffer (pH 7.4)
[7] = Titration of immobilized peptides on TentaGel beads with MG in presence and absence of 2 mM Ca2+; format: binding; conditions: presence vs absence of 2 mM Ca2+, peptide on bead
Method: (§4) Two peptides that can activate MG with or without calcium sensitivity were selected for further characterization. A solution form of the two peptides were synthesized and titrated with MG in the presence of 2 mM Ca^2+. Fluorescent signal at 650 nm was measured. […] Computational modeling confirmed stably folded structure of peptide 12 upon MG binding, preventing intramolecular motions of MG (FIG. 8B, FIG. 10A, B). […] The immobilized peptides on TentaGel beads were then titrated with an increasing amount of MG in the presence and absence of 2 mM Ca^2+. Fluorescent emission at 650 nm by each individual bead was measured. […] Computational modeling further confirmed that stably folded structure of peptide 2 only forms upon calcium binding (FIG. 11B).

[8] = Fluorescence titration of peptide in solution with MG, 2 mM Ca2+, 650 nm; format: binding
Method: as §4

[9] = system: HEK293 cells; experiment: Dual-color confocal imaging of Cerulean-linker-peptide fusion proteins with MG and acetylcholine; format: cell-based
From the text: To evaluate the utility of lead peptides in mammalian cells, individual peptide tags were fused to the C-terminus of a cyan fluorescence protein (Cerulean 3) anchored on the plasma membrane. An amino acid linker (GGSGSGGS: SEQ ID NO:33) was placed between C-terminus of Cerulean and the peptide to increase the solubility and stability of the recombinant fusion proteins. Goals for the design of fusion proteins are two-folds. First, the labeling ability of peptides can be readily detected by co-localization of both cyan and infrared fluorescence. Second, the calcium sensing ability of peptide can be tested by taking advantage of endogenous acetylcholine (Ach) receptors; Ach stimulus leads to transient calcium influx in cytosol, which may lead to increased MG fluorescence. Given the limited membrane permeability of MG, a relative high concentration of MG (5×10^−7 M) was used for the imaging assay. 48 hrs post-transfection, time-lapse, dual-color confocal fluorescence microscopy images were taken upon MG incubation, followed by Ach addition. […] The fluorescence intensity reached plateau within seconds and remains stable during the 10 mins period of imaging window. In contrast, no apparent infrared fluorescence was observed when membrane-anchored Cerulean control (without grafted peptide) was expressed upon MG addition (FIG. 15A). […]

For GLFDQES(P)GRGK (GLFDQE[pS]GRGK), the DMHBI activation [1] was “DMHBI activating”.
With DPSWPNS(P)GRGK(Ac) (DPSWPN[pS]GRGK(Ac)) the DMHBI activation [1] was “DMHBI activating”.
For TRPSMWS(P)GRGK(Ac) (TRPSMW[pS]GRGK(Ac)), the DMHBI activation [1] was “DMHBI activating”.
In the case of “CKWILPC (not fully specified (bridges); cysteine pairing not given here; also: bead-bound) [Bead #10]”, the “Binding and dissociation rates compared with indigo carmine” value ([2]; bromocresol purple) is reported as “much slower”, the Dye binding ([3]; listed as #10) is reported as “bind to both indigo carmine and bromocresol purple” and the “Time until colorization was seen” value ([4]; bead incubated with indigo carmine) is reported as “within five minutes”. The “Time until color completely gone (dissociation)” value ([4]; washing with PBS) was 20 min.
With “CNSPDIC (not fully specified (bridges); cysteine pairing not given here; also: bead-bound) [Bead #1]” the Dye binding ([3]; listed as # 1) was “Malachite green”, the Dye binding ([3]; listed as #1) was “only bind to malachite green; also recorded: bind only to malachite green” and the “Time after which color had not completely diminished (dissociation)” value ([4]; after washing) was > 72 h.
For LRRAS(P)LFYGMWYPST (LRRA[pS]LFYGMWYPST), the “Fluorescent activation of MG, brightness relative to LTA2 and LTA10” value [5] was 4-5 ×.
With VWDGIRS(P)GRGK(Ac) (VWDGIR[pS]GRGK(Ac)) the DMHBI activation [1] was “DMHBI activating”.
With “CHTHILC (not fully specified (bridges); cysteine pairing not given here; also: bead-bound) [Bead #4]” the “Time to maximum color binding” value ([2]; bead incubated with bromocresol purple) was “around 75 minutes”, the “Time until color disappeared (dissociation)” value ([2]; washing) was ≤ 72 h and the Dye binding ([3]; listed as # 4) was “Bromocresol”. The Dye binding ([3]; listed as #4) was “only bind to bromocresol purple; also recorded: bind only to bromocresol purple”.
In the case of “DWWWDGFERLEE (synthetic genetically encoded small illuminant (GESI) malachite green (MG) binding Peptide 2)”, the MG binding [6] is reported as “++”, the “Increase of MG binding affinity by calcium” value [7] is reported as “about 10 fold” and the “Increase of MG binding affinity by calcium” value ([7]; listed as peptide 2) is reported as 10 fold. The “Binding characteristics in solution studies” value [8] was “strong binding characteristics”, the “Sensitivity to calcium upon acetylcholine stimulation” value [9] was “showed sensitivity to calcium” and the “Increase of MG fluorescence intensity upon Ach addition” value ([9]; living cells) was 4 fold.
